Experimental data: patent publication US9060991B2, “Use of GLP-1 analogues for the treatment of disorders associated with dysfunctional synaptic transmission” (Innovation Ulster Limited, priority 2007, dated 2015)
Where no end group is shown, it is not given here.

Legend:
Type in all cases: in vivo, Male Wistar rats
[1] = tested on: long-term potentiation of synaptic transmission (EPSP slope, CA1 region of hippocampus); assay: LTP in hippocampal CA1 after icv GLP-1 peptides, weak HFS protocol; conditions: 15 nmol in 5 μl icv, LTP induced 30 min post-injection (time not given for FIG. 3A)
Description: (§1) Male Wistar rats weighing 220-280 g were anaesthetised with urethane (ethyl carbamate, 1.8 g/kg, intraperitoneal, (i.p.)) for the duration of all experiments. The animals had been obtained from Harlan, United Kingdom (UK). A cannula (22 gauge, 0.7 mm outer diameter, 11 mm in length, Bilaney, Kent, UK) was implanted (1.5 mm anterior to bregma, 0.5 mm lateral to the midline and 3.55 mm ventral) into the left hemisphere for intracerebroventricular (icv) injections. Electrodes (tungsten with Teflon® coating, Bilaney, Kent, UK) were implanted unilaterally 3.4 mm posterior and 2.5 mm lateral to the midline, and the stimulating electrode 4.2 mm posterior to bregma and 3.8 mm lateral to the midline. […] Recordings of EPSPs were made from the stratum radiatum in the CA1 region of the right hippocampal hemisphere in response to stimulation of the Schaffer collateral/commissural pathway. Field EPSPs were recorded on a computerised stimulating and recording unit (PowerLab, ADI instruments, UK) in which the trigger threshold was adjustable. The triggered unit activated a constant current stimulus isolation unit (Neurolog, UK). The data acquisition system was triggered simultaneously to record all events. Sampling speed was at 20 kHz recording of EPSPs.
(§2) The ‘strong’ high frequency stimulation (HFS) protocol for inducing long-term potentiation (LTP) consisted of 3 trains of 200 stimuli, inter-stimulus interval 5 ms (200 Hz), inter-train interval 2 sec. […] The ‘weak’ HFS protocol for inducing LTP consisted of 10 trains of 10 stimuli, inter-stimulus interval 5 ms (200 Hz). The strong HFS was used to test the effects of peptides that impair LTP (beta-amyloid), and the weak HFS was used to test peptides that facilitate LTP. In this form of LTP, the control group is not potentiated at a maximal rate, and LTP can decay slowly over time. Stimulation intensity was 70% of the maximum EPSP. LTP was measured as % of baseline EPSP slope recorded over a 30 min period prior to drug injection and 60 min prior to application of HFS. Baseline was recorded for 30 min and averaged. This value was taken as 100% of the EPSP slope and all recoded values were normalised to this baseline value. All experiments were licensed according to UK Home Office regulations, and the “Principles of laboratory animal care” (NIH publication No. 86-23, revised 1985) were followed.
Beta-amyoid (25-35) and other peptides used in this study were synthesised on an Applied Biosystems automated peptides synthesiser (Model 432A) using standard solid-phase Fmoc protocols. Peptides were judged pure by reversed phase HPLC on a waters Millenium 2010 chromatography system, and peptides were subsequently characterised using matrix-assisted laser desorption/ionisation time of flight (MALDI-TOF) mass spectrometry as described previously (Gengler et al., 2006; Hölscher et al., 2007). Peptides were stored in dry form and dissolved in double distilled water before the experiments. 5 μl of peptides solution was injected icv.
(§3) Each group consisted of 6 animals. Data were analysed using a repeated measures two-way ANOVA, or a repeated measures three level two-way ANOVA with post-hoc tests to discriminate between groups (PRISM, GraphPad software Inc; USA). […]
Male Wistar rats were icv injected with either vehicle (Control,) or 15 nmol Val(8)GLP-1 (♦). LTP was induced 30 min post-injection using the HFS (weak protocol), and the change in EPSP assessed and graphed to represent the change in LTP (FIG. 3B). […]

[2] = tested on: long-term potentiation of synaptic transmission (EPSP slope, CA1 region of hippocampus); assay: Val(8)GLP-1 against beta-amyloid(25-35)-induced impairment of LTP; conditions: for impairing effect of beta-amyloid on LTP: LTP induced 15 min post-βA injection
Description: as §1, §2
Beta-amyoid (25-35) and other peptides used in this study were synthesised on an Applied Biosystems automated peptides synthesiser (Model 432A) using standard solid-phase Fmoc protocols. […]
as §3

[3] = tested on: long-term potentiation of synaptic transmission (EPSP slope, CA1 region of hippocampus); assay: LTP in hippocampal CA1 after icv beta-amyloid(25-35), strong HFS protocol; conditions: LTP induced 15 min post-injection, control = scrambled peptide
Description: Male Wistar rats weighing 220-280 g were anaesthetised with urethane (ethyl carbamate, 1.8 g/kg, intraperitoneal, (i.p.)) for the duration of all experiments. The animals had been obtained from Harlan, United Kingdom (UK). A cannula (22 gauge, 0.7 mm outer diameter, 11 mm in length, Bilaney, Kent, UK) was implanted (1.5 mm anterior to bregma, 0.5 mm lateral to the midline and 3.55 mm ventral) into the left hemisphere for intracerebroventricular (icv) injections. Electrodes (tungsten with Teflon® coating, Bilaney, Kent, UK) were implanted unilaterally 3.4 mm posterior and 2.5 mm lateral to the midline, and the stimulating electrode 4.2 mm posterior to bregma and 3.8 mm lateral to the midline. […] Field EPSPs were recorded on a computerised stimulating and recording unit (PowerLab, ADI instruments, UK) in which the trigger threshold was adjustable. […]
The ‘strong’ high frequency stimulation (HFS) protocol for inducing long-term potentiation (LTP) consisted of 3 trains of 200 stimuli, inter-stimulus interval 5 ms (200 Hz), inter-train interval 2 sec. […] LTP was measured as % of baseline EPSP slope recorded over a 30 min period prior to drug injection and 60 min prior to application of HFS. Baseline was recorded for 30 min and averaged. […]
LTP was induced 15 min post-injection using the HFS (strong protocol), and the change in EPSP assessed and graphed to represent the change in LTP (FIG. 2). […]

With “Asp(7)GLP-1: analogue of human GLP-1 with Asp at position 7, SEQ ID NO: 3 (DAEGTFTSDVSSYLEGQAAKEFIAWLVKGR; Synthetic peptide analogue derived from human GLP-1)” the “effect on LTP (change in EPSP) versus control” value [1] was “enhanced long-term potentiation (LTP) compared with control”.

In the case of “GLP-1(7-36)amide: the natural hormone GLP-1(7-36)amide (HAEGTFTSDVSSYLEGQAAKEFIAWLVKGR-NH2; listed as Homo sapiens) [reference compound]”, the “effect on LTP (change in EPSP) versus control” value [1] is reported as “difference between the GLP-1(7-36)amide group and control”.

For GLP-1(9-36)amide [reference compound], the “effect on LTP (change in EPSP) versus control” value [1] was “no difference between the GLP-1(9-36)amide group and the control group”.

In the case of “Pro(9)GLP-1: analogue of human GLP-1 with Pro at position 9, SEQ ID NO: 5 (HAPGTFTSDVSSYLEGQAAKEFIAWLVKGR; Synthetic peptide analogue derived from human GLP-1)”, the “effect on LTP (change in EPSP) versus control” value [1] is reported as “enhanced long-term potentiation (LTP) compared with control”.

With “Val(8)GLP-1: analogue of human GLP-1 with Val at position 8, SEQ ID NO: 4” the “impairing effect of beta-amyloid on LTP” value ([2]; Val(8)GLP-1 15 nmol icv 15 min before beta-amyloid(25-35) 100 nmol icv) was “not significantly affected, but a trend became visible”, the “impairing effect of beta-amyloid on LTP” value ([2]; Val(8)GLP-1 15 nmol icv 30 min before beta-amyloid(25-35) 100 nmol icv) was “completely reversed” and the “impairing effect of beta-amyloid on LTP” value ([2]; Val(8)GLP-1 15 nmol icv simultaneously with beta-amyloid(25-35) 100 nmol icv) was “not affected”. For the same substance, the “effect on LTP (change in EPSP) versus control” value [1] was “can enhance the induction of LTP”.

With “βA(25-35): beta-amyloid fragment 25-35, peptide that impairs LTP (GSNKGAIIGLM; Amyloid-beta protein 42; UniProt P05067 696-706, looked up, fragment)” the “effect on LTP (change in EPSP) versus control” value ([3]; 10 nmol icv) was “difference between the 10 nmol group and control”, the “effect on LTP (change in EPSP) versus control” value ([3]; 100 nmol icv) was “difference between the 100 nmol group and control” and the “effect on LTP (change in EPSP) versus vehicle control” value ([2]; beta-amyloid(25-35) alone, 100 nmol icv, LTP induced 15 min post-injection, FIG. 4A-4C experiments) was “difference between the beta-amyloid(25-35) group and control”.
